From US10501516B2, “Peptide compound” (TAKEDA PHARMACEUTICAL COMPANY LIMITED, priority 2016, dated 2019)
pEC50: −log10 of the molar value. Square brackets hold non-standard residues; d marks the D form. Side chains are listed from the residue outwards. Peptide text beside a SMILES is read from it. * marks the point of attachment. C18 diacid = O=C(O)CCCCCCCCCCCCCCCCC(=O)*; NMeY = CN[C@@H](Cc1ccc(O)cc1)C(=O)O; αMeF = C[C@](N)(Cc1ccccc1)C(=O)O; Iva = CC[C@](C)(N)C(=O)O; Aib = CC(C)(N)C(=O)O

What was measured:
human GLP-1R = target: T1, human GLP-1R (Homo sapiens, UniProt P43220); experiment: Reporter assay of human GLP-1R gene (agonist activity, intracellular cAMP as index); type: cell-based; conditions: Cre-luc reporter, hGLP-1R/Crel cells (CHO-K1), 4 hours
T1 construct: expressed in transfected cells; host or cells: CHO-K1 Cre-luc reporter cells (hGLP-1R/Crel cells)
Description: (§1) Evaluation of Agonist Activity Against Human NPY2R, Human GIPR, and Human GLP-1R Using Change in Intracellular cAMP Concentration as Index
The human GLP-1R gene having a sequence identical to the sequence of GenBank Accession No. NM_002062 was cloned into pIRESneo3 vector (Clontech Laboratories, Inc.) to prepare hGLP-1R/pIRESneo3. This vector was introduced to the Cre-luc reporter cells obtained in (1) to obtain transformants. Next, a cell line induced to express luciferase, i.e., hGLP-1R/Crel cells, were selected from the obtained transformants by the addition of human GLP-1(7-37) peptide.
The hGIPR/CRE-LUC/CHO-K1 cells or the hGLP-1R/Crel cells were inoculated at a cell density of 25 μL/well (5,000 cells/well) to a 384-well white plate (Corning, 3570), and cultured overnight in Ham F12 medium containing 10% fetal bovine serum, 100 U/mL penicillin and 100 μg/mL streptomycin in a CO2 incubator of 37° C. On the next day, a medium containing a test compound was added at a concentration of 5 μL/well to the cells, and the resultant cells were incubated for 4 hours in a CO2 incubator of 37° C. to give the final concentration of 1 μM. SteadyGlo (Promega) was added thereto at a concentration of 30 μL/well, and the mixture was shaken with light shielded. After 30 minutes, the luciferase activity was measured using a plate reader Envision (PerkinElmer). For the GIPR agonist activity, the luciferase activity in the presence of 10 μM GIP was defined as 100%, and the luciferase activity from the addition of DMSO instead of the test compound was defined as 0%. The GIPR agonist activity was calculated with a rise in intracellular cAMP concentration as an index.
For the GLP-1R agonist activity, assay similar to above was conducted using the hGLP-1R/Crel cells. The luciferase activity in the presence of 10 μM GLP-1 was defined as 100%, and the luciferase activity from the addition of DMSO instead of the test compound was defined as 0%. The GLP-1R agonist activity was calculated with a rise in intracellular cAMP concentration as an index.

human NPY2R = target: T2, human NPY2R (Homo sapiens, UniProt P49146); experiment: Reporter assay of human NPY2R gene (agonist activity, decrease in intracellular cAMP as index); type: cell-based; conditions: Cre-luc reporter, hNPY2R CHO-K1 cells, forskolin 1.2 μM, 4 hours; read-out: Agonist activity (EC50) hY2R
T2 construct: expressed in transfected cells; host or cells: CHO-K1 Cre-luc reporter cells (pAKKO1114/hNPY2R#481 No. 88 cells)
T2 sequence (P49146 1-381): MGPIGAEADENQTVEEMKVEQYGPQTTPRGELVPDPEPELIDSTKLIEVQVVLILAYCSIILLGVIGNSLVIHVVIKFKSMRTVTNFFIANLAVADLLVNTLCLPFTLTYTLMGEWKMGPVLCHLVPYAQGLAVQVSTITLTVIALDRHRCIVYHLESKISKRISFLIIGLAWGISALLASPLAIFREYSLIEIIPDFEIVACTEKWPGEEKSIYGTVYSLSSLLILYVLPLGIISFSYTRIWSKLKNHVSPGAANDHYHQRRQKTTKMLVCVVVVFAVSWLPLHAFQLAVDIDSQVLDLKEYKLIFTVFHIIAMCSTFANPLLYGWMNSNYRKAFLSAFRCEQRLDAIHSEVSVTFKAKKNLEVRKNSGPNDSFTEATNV
Description: as §1
The human NPY2R gene having a sequence identical to the sequence of GenBank Accession No. AC104407 was cloned into pAKKO1114 vector to prepare hNPY2R/pAKKO1114. Next, pGL4.29 (Promega) was introduced to CHO-K1 cells, which were then screened with hygromycin to construct Cre-luc reporter cells. These cells were cotransfected with hNPY2R/pAKKO1114 and pcDNA3.1 (Life Technologies Corp.), and the cells were screened with geneticin. Next, a cell line induced to express luciferase, i.e., pAKKO1114/hNPY2R#481 No. 88 cells, were selected from the obtained transformants by the addition of human PYY (3-36).
The pAKKO1114/hNPY2R#481 No. 88 cells were inoculated at a cell density of 25 μL/well (5,000 cells/well) to a 384-well white plate (Corning, 3570), and cultured overnight in Ham F12 medium containing 10% fetal bovine serum, 100 U/mL penicillin and 100 μg/mL streptomycin in a CO2 incubator of 37° C. On the next day, the medium was removed, and an assay medium (Ham F12 medium containing 0.1% BSA, 100 U/mL penicillin and 100 μg/mL streptomycin) containing forskolin (final concentration: 1.2 μM) was added at a concentration of 25 μL/well to the cells. Next, an assay medium containing a test compound was added at a concentration of 5 μL/well to the cells, and the resultant cells were incubated for 4 hours in a CO2 incubator of 37° C. to give the final concentration of 1 μM. SteadyGlo (Promega) was added thereto at a concentration of 30 μL/well, and the mixture was left standing for 20 minutes with light shielded. The luciferase activity was measured using a plate reader Envision (PerkinElmer). The luciferase activity from the addition of DMSO was defined as 100%, and the luciferase activity from the addition of 1 μM human PYY(3-36) instead of the test compound was defined as 0%. The NPY2R agonist activity was calculated with a decrease in intracellular cAMP concentration as an index.

human GIPR = target: T3, human GIPR (Homo sapiens, UniProt P48546); experiment: Reporter assay of human GIPR gene (agonist activity, intracellular cAMP as index); type: cell-based; conditions: Cre-luc reporter, hGIPR/CHO-K1 cells, 4 hours
T3 construct: expressed in transfected cells; host or cells: CHO-K1 Cre-luc reporter cells (hGIPR/CHO-K1, also called hGIPR/CRE-LUC/CHO-K1)
T3 sequence (P48546 22-466): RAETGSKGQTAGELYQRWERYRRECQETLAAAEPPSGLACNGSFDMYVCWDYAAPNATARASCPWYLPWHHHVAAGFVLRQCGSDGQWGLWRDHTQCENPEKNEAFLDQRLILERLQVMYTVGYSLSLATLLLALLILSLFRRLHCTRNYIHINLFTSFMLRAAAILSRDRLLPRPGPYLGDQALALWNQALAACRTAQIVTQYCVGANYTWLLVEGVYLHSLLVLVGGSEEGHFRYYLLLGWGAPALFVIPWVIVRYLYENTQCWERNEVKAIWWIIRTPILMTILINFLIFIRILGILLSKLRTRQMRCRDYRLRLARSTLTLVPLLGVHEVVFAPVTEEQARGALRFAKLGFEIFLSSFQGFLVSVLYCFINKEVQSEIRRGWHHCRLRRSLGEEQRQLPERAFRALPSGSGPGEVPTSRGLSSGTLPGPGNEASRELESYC

Male C57BL/6J mice = experiment: Conditioned taste aversion (CTA) test; type: in vivo, mouse; conditions: 10 nmol/kg s.c.
Protocol: Male C57BL/6J (9 weeks old) mice were habituated to time-restricted bottled water supply (2-3 hours/day) and subcutaneous injection of saline for 1 week. Mice were divided into the groups based on the data of body weight and water intake. CTA test was performed according to the following protocol. On day 1 for the first conditioning, mice were given 0.1% sodium saccharin solution to drink for 3 hours. Ten-minutes after supplying the saccharin solution, vehicles, liraglutides and P41 were administered subcutaneously. […] On day 2, mice were given tap water for 3 hours and subcutaneous injection of saline after water supply. On day 3, the second conditioning was conducted as the same procedure used on day 1. On day 4, mice were given tap water for 3 hours without subcutaneous injection. On day 5, both tap water and saccharin solution were supplied to mice for 3 hours without subcutaneous injection and the intake of each fluid was measured. Saccharin preference ratio (%) was calculated according to the following equation: {(amount of saccharin intake)/(amount of saccharin intake+amount of water intake)}×100.

T1 sequence (P43220 24-463): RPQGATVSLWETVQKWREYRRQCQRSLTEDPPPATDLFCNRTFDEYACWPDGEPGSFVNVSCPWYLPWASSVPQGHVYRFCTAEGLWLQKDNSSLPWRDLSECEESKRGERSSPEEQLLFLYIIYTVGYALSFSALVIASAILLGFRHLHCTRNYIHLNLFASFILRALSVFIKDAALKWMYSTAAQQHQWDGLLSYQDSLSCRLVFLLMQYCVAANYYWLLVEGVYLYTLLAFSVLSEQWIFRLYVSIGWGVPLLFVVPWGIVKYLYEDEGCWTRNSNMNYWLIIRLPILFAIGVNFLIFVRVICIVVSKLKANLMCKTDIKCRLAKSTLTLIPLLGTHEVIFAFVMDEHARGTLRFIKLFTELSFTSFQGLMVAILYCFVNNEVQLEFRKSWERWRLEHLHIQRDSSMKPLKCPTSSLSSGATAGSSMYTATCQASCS

pEC50 (human GLP-1R)	pEC50 (human NPY2R)	pEC50 (human GIPR)	Compound	induction of conditioned taste aversion (emetic effects) (Male C57BL/6J mice)
8.89	8.59	9.60	CC[C@H](C)[C@H](NC(=O)[C@H](CO)NC(=O)[C@H](CCCCNC(=O)CNC(=O)CNC(=O)CNC(=O)CNC(=O)CCCCCCCCCCCCCCCCC(=O)O)NC(=O)[C@H](CC(=O)O)NC(=O)[C@H](CO)NC(=O)[C@@H](NC(=O)[C@](C)(Cc1ccccc1)NC(=O)[C@@H](NC(=O)CNC(=O)[C@H](CCC(=O)O)NC(=O)C(C)(C)NC(=O)[C@H](Cc1ccc(O)cc1)NC)[C@@H](C)O)[C@@H](C)O)C(=O)NC(C)(C)C(=O)N[C@@H](CC(C)C)C(=O)N[C@@H](CCC(=O)O)C(=O)N[C@@H](CCCCN)C(=O)N[C@@H](CCC(N)=O)C(=O)N[C@@H](CCCNC(=N)N)C(=O)N[C@@H](CCC(N)=O)C(=O)N[C@@](C)(CC)C(=O)N[C@@H](CCC(=O)O)C(=O)N[C@@H](Cc1ccccc1)C(=O)N[C@H](C(=O)N[C@@H](CCCNC(=N)N)C(=O)N[C@@H](Cc1c[nH]cn1)C(=O)N[C@@H](CC(C)C)C(=O)N[C@@H](CC(C)C)C(=O)N[C@@H](CC(N)=O)C(=O)N[C@@H](CCCCN)C(=O)NC(C)(C)C(=O)N[C@H](C(=O)N[C@@H](CCCNC(=N)N)C(=O)N[C@@H](CCC(N)=O)C(=O)N[C@@H](CCCNC(=N)N)C(=O)N[C@@H](Cc1ccc(O)cc1)C(N)=O)[C@@H](C)O)C(C)C [Example 42] (H-[NMeY][Aib]EGT[αMeF]TSDK([Gly-Gly-Gly-Gly-C18 diacid])SI[Aib]LEKQRQ[Iva]EFVRHLLNK[Aib]TRQRY-NH2)	–
–	–	–	CCCCCCCCCCCCCCCC(=O)N[C@@H](CCC(=O)NCCCC[C@H](NC(=O)[C@H](C)NC(=O)[C@H](C)NC(=O)[C@H](CCC(N)=O)NC(=O)CNC(=O)[C@H](CCC(=O)O)NC(=O)[C@H](CC(C)C)NC(=O)[C@H](Cc1ccc(O)cc1)NC(=O)[C@H](CO)NC(=O)[C@H](CO)NC(=O)[C@@H](NC(=O)[C@H](CC(=O)O)NC(=O)[C@H](CO)NC(=O)[C@@H](NC(=O)[C@H](Cc1ccccc1)NC(=O)[C@@H](NC(=O)CNC(=O)[C@H](CCC(=O)O)NC(=O)[C@H](C)NC(=O)[C@@H](N)Cc1cnc[nH]1)[C@@H](C)O)[C@@H](C)O)C(C)C)C(=O)N[C@@H](CCC(=O)O)C(=O)N[C@@H](Cc1ccccc1)C(=O)N[C@H](C(=O)N[C@@H](C)C(=O)N[C@@H](Cc1c[nH]c2ccccc12)C(=O)N[C@@H](CC(C)C)C(=O)N[C@H](C(=O)N[C@@H](CCCNC(=N)N)C(=O)NCC(=O)N[C@@H](CCCNC(=N)N)C(=O)NCC(=O)O)C(C)C)[C@@H](C)CC)C(=O)O [Liraglutide, liraglutide, reference compound]	significantly decreased saccharin preference ratio
